Consider 113 compounds from a melting point compilation (Tetko et al.).

The structures appear in SMILES notation.

Consider `CCOC(=O)Cc1nn(CC(N)=S)c(=O)c2ccccc12`, for which the melting point is 150 to 152 °C. In the case of `OC1Cc2cccc(F)c21` (stereo not drawn) it was 56 °C; in that of `O=[N+]([O-])c1ccc2[nH]ncc2c1`, 210 °C; in that of `CCOC(=O)c1c(SC)nn(C(N)=O)c1N`, 155 °C. As for `Cc1cc(C)n2nc(N)c(/N=N/c3cc(Cl)c(Cl)cc3Cl)c2n1`, the figure is 295 °C; as for `O=C(O)CCCC(=O)c1cccs1`, 96 °C; as for `CCOC(=O)C(C#N)=Cc1ccc(-c2ccccc2Br)o1`, 123 to 124 °C. In turn, `NC(=O)C1CC1` displayed a melting point of 124 °C.

`CC(=O)CC(=O)c1cccnc1` gave a melting point of 85 °C. In the case of `CC1(C)CC(=O)C(=NNc2ccc(Br)cc2)C(=O)C1` it was 204 °C. As for `CC=CC=CCCCCCCCO`, the figure is 32 °C; as for `FC(F)(Cl)C(F)(Cl)C(F)(F)Cl`, -72 °C.

`Cc1ccc2cc3nc(C)ccc3cc2n1` registered a melting point of 237 to 238 °C. Consider `O=c1[nH]sc2ccccc12`, for which the melting point was found to be 156 °C. As for `Cc1ccc2cc(Cl)c(Cl)cc2n1`, the melting point was 121 to 123 °C. As for `Cc1ccccc1Nc1[nH]c(=S)nnc1-c1ccccc1`, the figure is 294 °C; as for `CC12CCC(=O)C=C1CCC1C3CCC(O)(C(=O)CO)C3(C)CC(O)C12F` (stereo not drawn), 261 °C. As for `O=S(=O)(Cl)c1ccc(-c2ccccc2)cc1`, the figure is 115 °C; as for `FC(F)(F)c1nc2c(Cl)c(Cl)ccc2[nH]1`, 214 °C.

For `OC1OC(COCc2ccccc2)C(OCc2ccccc2)C(OCc2ccccc2)C1OCc1ccccc1` (stereo not drawn), the melting point was found to be 152 °C. Turning to `N#Cc1ccc(Br)cc1Cl`, the melting point stood at 70 °C. `c1ccc2c(c1)CCc1ccccc1N2C1CN2CCC1CC2` (stereo not drawn) gave a melting point of 150 °C. In the case of `CC(=O)Oc1c(-c2ccccc2)[nH]c2cc(N)c(/C=C/c3ccccc3)cc12` it was 266 °C. As for `COc1ccc(CCc2cc(OC)c3ccccc3n2)cc1OC`, the figure is 116 °C; as for `O=C(O)c1ccsc1Br`, 174 to 175 °C; as for `Nc1ccc2nsnc2c1`, 112 to 114 °C.

In the case of `CC(C)[Si](C(C)C)(C(C)C)C1SCCCS1`, the melting point came to 48 °C. In the case of `O=Cc1cccc(Br)c1` it was 20 °C.

Take `Cc1cc(C)c(CCl)c(C)c1`: the melting point was 40 °C.

In turn, `CCCCN(CCCC)c1ccccc1` displayed a melting point of -32.2 °C. On to `COC(=O)c1c(-c2c(Cl)cccc2Cl)noc1C`, for which the melting point came to 115 °C. Take `CC(C)(C)C(CCC(=O)O)CC(=O)O` (stereo not drawn): the melting point lay in the range of 114 to 117 °C. In the case of `CSC(=NS(=O)(=O)c1ccc(C)cc1)SC` it was 109 to 110 °C. In the case of `NNC(=S)NCc1cccnc1` it was 171 to 173 °C.

Take `CC(C)(C)OC(=O)ON=C(C#N)c1ccccc1`: the melting point lay in the range of 86 to 89 °C.

Compound `O=C(C=NO)Nc1ccc(Cl)cc1Cl` gave a melting point of 198 to 201 °C. Compound `c1ccc(-c2cn3c(n2)SCC3)cc1` returned a melting point of 147 to 148 °C. In turn, `COC(=O)C1CCC(C)(C(O)(c2ccccc2)c2ccccc2)OC1(C)C` (stereo not drawn) returned a melting point of 91 °C. In the case of `N#CCN` it was 101 °C. As for `CC1Cc2ccccc2N1` (stereo not drawn), the figure is -51 °C; as for `O=C1c2ccccc2CC2c3ccccc3C=CN12` (stereo not drawn), 128 °C; as for `Cc1nc(-c2ccccc2)c(CO)s1`, 143 to 147 °C.

For `CC(C(=O)O)=C(c1ccccc1)c1ccccc1`, the melting point is 163 °C. `OC1CCSCC1` showed a melting point of 50 to 51 °C. `NCCCO` came in with a melting point of 11 °C.

As for `COc1cc(C(C)(C)C)c(O)c(C(C)(C)C)c1`, the melting point came out at 105 °C. In the case of `NNC(=O)COc1ccc(F)cc1` it was 125 °C; in that of `O=C1C(=Cc2ccccc2)CCCC1=Cc1ccccc1`, 118 °C; in that of `Cc1ncc(CO)c(CO)c1O`, 160 °C. As for `COCCCN`, the figure is -65 °C; as for `CCOC(=O)C(C#N)=C(N)c1cc2cc(Br)ccc2oc1=O`, 270 to 272 °C. In the case of `CC(=N[Si](C)(C)C)O[Si](C)(C)C` it was 24 °C. Consider `NNC(=O)Cc1nc(-c2cnccn2)no1`, for which the melting point fell in the range of 184 to 186 °C. As for `Oc1ccc2cc[nH]c2c1`, the figure is 124 to 130 °C.

`Cn1nc(CCNC(=O)c2cc([N+](=O)[O-])cc([N+](=O)[O-])c2)c2c(N)ncnc21` yielded a melting point of 281 °C. In the case of `CCS(=O)(=O)CCO` it was 46 °C; in that of `CCOC(=O)[C@H]1CCC(=O)N1`, 49 to 53 °C; in that of `CC(=O)C1(O)CCC2C3CCC4CC(O)CCC4(C)C3CCC21C` (stereo not drawn), 265 °C. As for `Cc1cnc(N)c(Br)c1`, the figure is 72 °C; as for `CC(=O)CCC1C(=O)N(c2ccccc2)N(c2ccccc2)C1=O`, 116 °C.

In the case of `Cc1cc(Oc2ccc(C(F)(F)F)cc2[N+](=O)[O-])ccc1Cl`, the melting point was 57 to 59 °C.

`COc1ccc(Nc2cccc(C(F)(F)F)c2)cc1` yielded a melting point of 58 °C.

For the compound `c1ccc(CNc2ccccn2)cc1`, the melting point came out at 95 °C. As for `NCCNCCO`, the figure is -28 °C; as for `CCOc1ccc(-c2nnc3n2NC(C=Cc2ccccc2)S3)cc1` (stereo not drawn), 226 to 228 °C; as for `C/C(=N\NC(N)=O)c1ccc(C)cc1`, 204 °C.

As to `Cc1cc(C)c2c(c1C)C(=O)C2`, the melting point was 73 °C. In the case of `Cc1cccc(NC(=O)C(F)(F)F)c1C(=O)O` it was 168 to 169 °C; in that of `Cc1nc2n(c(=O)c1CCN1CCC(c3noc4cc(F)ccc34)CC1)CCCC2`, 170 °C; in that of `Cc1cc(F)ccc1N`, 14.2 °C. In the case of `CCOP(=S)(OCC)Oc1ccc2c(C)c(Cl)c(=O)oc2c1` it was 95 °C; in that of `Cc1nc2ccccc2n1CC(=O)O`, 260 to 262 °C; in that of `CNc1ccc2cc3ccc(N(C)S(C)(=O)=O)cc3nc2c1CO`, 150 °C. In the case of `CSc1nc(N=Cc2ccc(Cl)cc2)nn1C` it was 136 to 138 °C; in that of `O=Cc1ccc(SCc2ccco2)c([N+](=O)[O-])c1`, 153 to 154 °C. In turn, `O=C(O)c1cc(O)ccc1F` gave a melting point of 205 °C.

`CCCCCCCCC(=O)OCCCC` had a melting point of -38 °C. Take `CCOC(=O)C(=O)c1cc(C(=O)C(=O)OCC)c([N+](=O)[O-])cc1[N+](=O)[O-]`: the melting point is 118 °C. In the case of `CC(C)(C)c1cc(O)cc(C(C)(C)C)c1` it was 88 °C.

The compound `O=C(C1=NOC2C(=O)N(c3ccc(Br)cc3)C(=O)C12)c1ccc(Cl)cc1` (stereo not drawn) came in with a melting point of 184 °C. In the case of `C=CC(=O)NCO` it was 74.5 °C; in that of `CC1CN(C2CCCCCCCCCCC2)CC(C)O1` (stereo not drawn), 71 °C; in that of `CCCCCC(=O)Cl`, -87 °C. In the case of `S=C=Nc1c(Cl)cccc1Cl` it was 43 °C; in that of `O=C(O)CN(CCO)CCO`, 190 to 192 °C; in that of `N=C(N)c1ccc(Oc2ccc(C(=N)N)cc2)cc1`, 216 °C.

For `O=C(C=Cc1ccc(-c2ccccc2)o1)c1ccccc1`, the melting point was in the range of 98 to 99 °C. As to `COc1ccc(-c2cc(NN=c3c(C(F)(F)F)nc4ccccc4[nH]c3=O)[nH]n2)cc1`, the melting point turned out to be 154 °C. For `OCCCCCCCCCCCCCCO`, the melting point was 85.8 °C. In the case of `COc1ccc(C(N)CCO)cc1` (stereo not drawn) it was 82 to 86 °C; in that of `O=[N+]([O-])c1cccc(OCCCCBr)c1`, 62 to 63 °C; in that of `CC(C)c1cc(C(C)C)c(-c2ccccc2P(C2CCCCC2)C2CCCCC2)c(C(C)C)c1`, 185 °C. On to `Cc1ccccc1NC(=S)NN`, for which the melting point worked out at 147 °C. Regarding `O=[N+]([O-])OC1COC2C(O[N+](=O)[O-])COC12` (stereo not drawn), the melting point turned out to be 61 °C. In the case of `O=c1[nH]c2scc(-c3ccccc3)c2c(=O)n1-c1cccc(C(F)(F)F)c1` it was 231 to 233 °C. `COc1ccc(C(N)=O)cc1OC` registered a melting point of 164 °C. As for `NCC(F)C(=O)O` (racemic), the figure is 222 to 223 °C; as for `COC(=O)CSCCC(N)=S`, 78 to 81 °C; as for `Cc1nc2cc(C)c(C)cc2s1`, 84 °C. In the case of `CC/C(=N/NC(N)=O)C1=CC2(C)CCC1C2(C)C` (stereo not drawn) it was 196 to 197 °C; in that of `Nc1ccn(C2OC(COP(=O)(O)O)C(O)C2O)c(=O)n1` (stereo not drawn), 233 °C.

Take `CCOC(=O)Nc1nc(N)c(C(N)=O)s1`: the melting point was in the range of 168 to 170 °C. In the case of `OC(c1ccccc1)(c1ccccc1)[C@H]1CCCN1` it was 77 to 81 °C; in that of `C(=Nc1ccccc1)=Nc1ccccc1`, 169 °C. In the case of `CC(=O)O[C@@H]1CC[C@@]2(C)C(CC[C@@H]3[C@@H]2CC[C@@]2(C)[C@H]3CC[C@]2(O)/C=C/c2ccccc2)C1` (stereo partly drawn) it was 160 to 164 °C; in that of `CC(=O)N(Nc1ccccc1)c1ccc(-c2ccc(N(Nc3ccccc3)C(C)=O)cc2)cc1`, 235 °C. As for `CCCOC(=O)C1=C(C)NC(=O)NC1c1ccccc1` (stereo not drawn), the figure is 176 °C; as for `BrCCCCCCCBr`, 41.7 °C. `NC(=O)Cc1nc(-c2ccc(F)cc2)cs1` showed a melting point of 182 °C. As for `C=CCNc1nc(N)c(C(N)=O)s1`, the figure is 158 to 160 °C; as for `CCOC(=O)Nc1ccc2cc3ccc4c(c3nc2c1)COCN4C(=O)OCC`, 174 °C. In the case of `CC(=O)/N=c1\sc(C(C)=O)nn1-c1ccc(F)cc1` it was 157 °C; in that of `CCCCCCCCCCS(=O)(=O)Cl`, 34 °C.

A word on the melting point: it is the temperature, or range, at which the solid turns liquid.
